test system: myeloid leukemia patient primary cells Pat.2; experiment: cell viability (% survival relative to DMSO control); higher = less cytotoxic; details: 100 nM; 72 h
In short: (§1)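 Where an area under the curve appears, it was computed with the drc and PharmacoGx R packages from log-logistic fits. Those fits used four parameters. The underlying viability data came from CellTiter-Glo after 72 h, normalised to DMSO and 10 μM proteasome-inhibitor wells, with thawed, Ficoll-purified AML or CML patient mononuclear cells at 10,000 cells/well in RPMI 1640 with 10% FBS on 384-well plates pre-printed with 70 compounds at five tenfold concentrations (1–10,000 nM) in duplicate.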

Structure (SMILES) | cell viability
O=C1c2cc([N+](=O)[O-])ccc2-n2c1nc1ccccc1c2=O [GNF-Pf-3777] | 95.5%
O=C(O)Cn1nnc(-c2cc(N3CCC(Oc4cc(F)ccc4Br)CC3)no2)n1 [MK-8245] | > 100%
C=C(C=NNC(=N)N)NNC(=N)N [Mitoguazone] | 49.2%
COc1cc(/C=C/C(=O)N2CCC=CC2=O)cc(OC)c1OC [Piperlongumine] | 93.3%
C=C(C)[C@H]1Cc2c(ccc3c2O[C@@H]2COc4cc(OC)c(OC)cc4[C@@H]2C3=O)O1 [Rotenone] | 68.7%
Oc1ccc(Nc2nc(-c3ccc(Cl)cc3)cs2)cc1 [SKI II] | 95.1%
CC[C@@]1(O)C(=O)OCc2c1cc1n(c2=O)Cc2cc3c(CN(C)C)c(O)ccc3nc2-1 [Topotecan] | 95.9%

same assay, conditions: 1000 nM; 72 h

Structure (SMILES) | cell viability
O=C(C1CC1)N1CC[C@@H](C=C2NNC(=O)N2c2ccc(-c3ccc4occc4c3)cc2)C1 | 95.2%
C[C@H](NC(=O)c1sccc1OCc1ccc(Cl)cc1)c1ccccc1 | 97.8%
O=C(O)C1=CC(=C(c2ccc(O)c(C(=O)O)c2)c2ccc(O)c(C(=O)O)c2)C=CC1=O [Aurintricarboxylic acid] | > 100%
COC(=O)[C@]12CCC(C)(C)C[C@H]1[C@H]1C(=O)C=C3[C@@]4(C)C=C(C#N)C(=O)C(C)(C)[C@@H]4CC[C@@]3(C)[C@]1(C)CC2 [Bardoxolone methyl] | 34.7%
Cc1c(-c2ccc(-c3ccccc3F)cc2)nc2ccc(F)cc2c1C(=O)O [Brequinar] | 95.2%
O=C1O/C(=C/Br)CCC1c1cccc2ccccc12 (stereo not given) [Bromoenol Lactone] | 93.6%
Nc1nc(Cl)nc2c1ncn2[C@H]1C[C@H](O)[C@@H](CO)O1 [Cladribine] | 15.5%
N#CC(C#N)=NNc1ccc(OC(F)(F)F)cc1 [FCCP] | 95.3%
O=C1c2cc([N+](=O)[O-])ccc2-n2c1nc1ccccc1c2=O [GNF-Pf-3777] | 93.7%
O=C(O)Cn1nnc(-c2cc(N3CCC(Oc4cc(F)ccc4Br)CC3)no2)n1 [MK-8245] | > 100%
C=C(C=NNC(=N)N)NNC(=N)N [Mitoguazone] | 50%
COc1cc(/C=C/C(=O)N2CCC=CC2=O)cc(OC)c1OC [Piperlongumine] | 93.6%
C=C(C)[C@H]1Cc2c(ccc3c2O[C@@H]2COc4cc(OC)c(OC)cc4[C@@H]2C3=O)O1 [Rotenone] | 61.5%
Oc1ccc(Nc2nc(-c3ccc(Cl)cc3)cs2)cc1 [SKI II] | 94.2%
CC[C@@]1(O)C(=O)OCc2c1cc1n(c2=O)Cc2cc3c(CN(C)C)c(O)ccc3nc2-1 [Topotecan] | 72%

same assay, conditions: 10000 nM; 72 h

Structure (SMILES) | cell viability
O=C(C1CC1)N1CC[C@@H](C=C2NNC(=O)N2c2ccc(-c3ccc4occc4c3)cc2)C1 | 91.7%
C[C@H](NC(=O)c1sccc1OCc1ccc(Cl)cc1)c1ccccc1 | 64%
O=C(O)C1=CC(=C(c2ccc(O)c(C(=O)O)c2)c2ccc(O)c(C(=O)O)c2)C=CC1=O [Aurintricarboxylic acid] | 98.8%
COC(=O)[C@]12CCC(C)(C)C[C@H]1[C@H]1C(=O)C=C3[C@@]4(C)C=C(C#N)C(=O)C(C)(C)[C@@H]4CC[C@@]3(C)[C@]1(C)CC2 [Bardoxolone methyl] | 77.6%
Cc1c(-c2ccc(-c3ccccc3F)cc2)nc2ccc(F)cc2c1C(=O)O [Brequinar] | 99.9%
O=C1O/C(=C/Br)CCC1c1cccc2ccccc12 (stereo not given) [Bromoenol Lactone] | 29.4%
Nc1nc(Cl)nc2c1ncn2[C@H]1C[C@H](O)[C@@H](CO)O1 [Cladribine] | 10.1%
N#CC(C#N)=NNc1ccc(OC(F)(F)F)cc1 [FCCP] | 30%
O=C1c2cc([N+](=O)[O-])ccc2-n2c1nc1ccccc1c2=O [GNF-Pf-3777] | 62.3%
O=C(O)Cn1nnc(-c2cc(N3CCC(Oc4cc(F)ccc4Br)CC3)no2)n1 [MK-8245] | 96.3%
C=C(C=NNC(=N)N)NNC(=N)N [Mitoguazone] | 67.7%
COc1cc(/C=C/C(=O)N2CCC=CC2=O)cc(OC)c1OC [Piperlongumine] | 4.56%
C=C(C)[C@H]1Cc2c(ccc3c2O[C@@H]2COc4cc(OC)c(OC)cc4[C@@H]2C3=O)O1 [Rotenone] | 57.5%
Oc1ccc(Nc2nc(-c3ccc(Cl)cc3)cs2)cc1 [SKI II] | 53.1%
CC[C@@]1(O)C(=O)OCc2c1cc1n(c2=O)Cc2cc3c(CN(C)C)c(O)ccc3nc2-1 [Topotecan] | 39.5%

test system: myeloid leukemia patient primary cells Pat.6; experiment: as above; details: 1 nM; 72 h
In short: as §1

Structure (SMILES) | cell viability
O=C(C1CC1)N1CC[C@@H](C=C2NNC(=O)N2c2ccc(-c3ccc4occc4c3)cc2)C1 | 98.1%
C[C@H](NC(=O)c1sccc1OCc1ccc(Cl)cc1)c1ccccc1 | > 100%
O=C(O)C1=CC(=C(c2ccc(O)c(C(=O)O)c2)c2ccc(O)c(C(=O)O)c2)C=CC1=O [Aurintricarboxylic acid] | 99.8%
COC(=O)[C@]12CCC(C)(C)C[C@H]1[C@H]1C(=O)C=C3[C@@]4(C)C=C(C#N)C(=O)C(C)(C)[C@@H]4CC[C@@]3(C)[C@]1(C)CC2 [Bardoxolone methyl] | 99.8%
Cc1c(-c2ccc(-c3ccccc3F)cc2)nc2ccc(F)cc2c1C(=O)O [Brequinar] | > 100%
O=C1O/C(=C/Br)CCC1c1cccc2ccccc12 (stereo not given) [Bromoenol Lactone] | 91.1%
Nc1nc(Cl)nc2c1ncn2[C@H]1C[C@H](O)[C@@H](CO)O1 [Cladribine] | 95.1%
N#CC(C#N)=NNc1ccc(OC(F)(F)F)cc1 [FCCP] | 87%
O=C1c2cc([N+](=O)[O-])ccc2-n2c1nc1ccccc1c2=O [GNF-Pf-3777] | > 100%
O=C(O)Cn1nnc(-c2cc(N3CCC(Oc4cc(F)ccc4Br)CC3)no2)n1 [MK-8245] | 97.8%
C=C(C=NNC(=N)N)NNC(=N)N [Mitoguazone] | > 100%
COc1cc(/C=C/C(=O)N2CCC=CC2=O)cc(OC)c1OC [Piperlongumine] | 83.2%
C=C(C)[C@H]1Cc2c(ccc3c2O[C@@H]2COc4cc(OC)c(OC)cc4[C@@H]2C3=O)O1 [Rotenone] | 44.2%
Oc1ccc(Nc2nc(-c3ccc(Cl)cc3)cs2)cc1 [SKI II] | 75.2%
CC[C@@]1(O)C(=O)OCc2c1cc1n(c2=O)Cc2cc3c(CN(C)C)c(O)ccc3nc2-1 [Topotecan] | > 100%

same assay, conditions: 10 nM; 72 h

Structure (SMILES) | cell viability
O=C(C1CC1)N1CC[C@@H](C=C2NNC(=O)N2c2ccc(-c3ccc4occc4c3)cc2)C1 | 97.7%
C[C@H](NC(=O)c1sccc1OCc1ccc(Cl)cc1)c1ccccc1 | 98.1%
O=C(O)C1=CC(=C(c2ccc(O)c(C(=O)O)c2)c2ccc(O)c(C(=O)O)c2)C=CC1=O [Aurintricarboxylic acid] | 97.5%
COC(=O)[C@]12CCC(C)(C)C[C@H]1[C@H]1C(=O)C=C3[C@@]4(C)C=C(C#N)C(=O)C(C)(C)[C@@H]4CC[C@@]3(C)[C@]1(C)CC2 [Bardoxolone methyl] | 81.4%
Cc1c(-c2ccc(-c3ccccc3F)cc2)nc2ccc(F)cc2c1C(=O)O [Brequinar] | > 100%
O=C1O/C(=C/Br)CCC1c1cccc2ccccc12 (stereo not given) [Bromoenol Lactone] | 89.2%
Nc1nc(Cl)nc2c1ncn2[C@H]1C[C@H](O)[C@@H](CO)O1 [Cladribine] | 74.3%
N#CC(C#N)=NNc1ccc(OC(F)(F)F)cc1 [FCCP] | 97.4%
